{"source": "patent US20200003759A1", "about": "“METHODS FOR IDENTIFYING METAP-2 MODULATORS” (Zafgen, Inc., priority 2017, published 2020)", "key": {"[1]": {"system": "HUVEC", "experiment": "Inhibition of HUVEC proliferation as a function of drug exposure time (washout assay)", "protocol": "(§3) After incubation with drug or vehicle, EC proliferation was analyzed using a DNA dye (CyQUANT®) added to lysed cells to provide a fluorescent signal relative to the amount of DNA, allowing a measure of cell density.\nA washout assay protocol is as follows: Day 1: plate cells: Plate cells at 0.3×10^4 cells/well in collagen coated 96-well plates; Incubate cells at 37° C., 5% CO2 in a humidified atmosphere overnight. Day 2: dilute and add MetAP2 inhibitor compounds: Dilute compounds in cell culture medium to the appropriate concentration. Add medium containing compound onto cells. Incubate cells at 37° C., 5% CO2 in a humidified atmosphere for the appropriate timepoint. Washout: After the indicated time, remove medium from the relevant samples and wash twice with PBS. Replace with fresh medium Incubate at 37° C., 5% CO2 in a humidified atmosphere until final incubation time. […] Measure cell proliferation using CyQuant assay.\nThe cells were incubated for 72 hrs and cell proliferation was measured to assess inhibition. […] Error bars represent the standard error of the mean for each condition (n=8 replicates per test condition pooled from 3 experiments)."}, "[2]": {"settings": "cited from earlier work"}, "[3]": {"system": "plasminogen activator inhibitor-1 (PAI-1)", "experiment": "PAI-1 protein level in HUVEC lysate", "assay_type": "cell-based, human", "description": "(§1) Cell lysates were stored at −80° C.\n(§2) All values obtained were normalized against protein concentration."}, "[4]": {"system": "von Willebrand factor (vWF)", "experiment": "vWF level in HUVEC lysate", "assay_type": "cell-based, human", "settings": "discrete time intervals and concentrations (FIG. 3)", "description": "as §1, §2"}, "[5]": {"assay_type": "in vivo", "description": "Male beagle dogs 10 to 20 months of age (Marshall BioResources, North Rose, NY) were individually housed at the testing facility. […] […]. […] Body weight and food intake were recorded daily. Blood was collected before each dose and 4 hours after each dose for hematology (e.g., platelet count), coagulation parameters (e.g., thrombin time, antithrombin III), and protein panel analysis (e.g., D-dimer) (Nextcea, Woburn, Mass.)."}, "[6]": {"system": "p21", "experiment": "p21 protein level in HUVEC lysate", "assay_type": "cell-based, human", "description": "as §1, §2"}, "[7]": {"system": "p53", "experiment": "p53 protein level in HUVEC lysate", "assay_type": "cell-based, human", "settings": "discrete time intervals and concentrations (FIG. 4)", "description": "as §1, §2"}, "[8]": {"system": "HUVEC", "experiment": "Inhibition of HUVEC (EC) proliferation, continuous exposure, CyQUANT DNA dye", "settings": "Homo sapiens", "protocol": "In vitro studies were conducted in cultured HUVECs (Lonza, Amboise, France). Cells were cultured in endothelial growth medium 2 cell culture media (EGM-2, Lonza, Amboise, France), passaged by seeding at 3×10^3 cells/mL on T175 flasks, and allowed to reach approximately 80% confluence before experiments were conducted. Cells were trypsinized and counted using trypan blue exclusion method using an automated Cedex cell counter.\nas §3"}, "[9]": {"system": "thrombomodulin (TM)", "description": "For LC-MS/MS sample preparation, cell culture media was removed, cells were washed with 10 mL of Dulbecco's phosphate-buffered saline (DPBS), and 500 μL of T-PER lysis buffer was added. Cell lysates were stored at −80° C. […] For the 4- and 8-hour incubations, cells were maintained by standard culture for the remainder of the 72-hour incubation period. Cell cycle protein levels were assessed using enzyme-linked immunosorbent assays.\nHUVEC cells were exposed to compounds at concentrations of 1 nM, 3 nM, 10 nM, and 20 nM. […] The protein assays performed included measurements of total p21, thrombomodulin, total p53, PAI-1, and von Willibrand factor (vWF). All values obtained were normalized against protein concentration."}, "[10]": {"settings": "10 nM, 2-hour incubation, washed (FIG. 6B)"}, "[11]": {"settings": "exposures as short as one hour (FIG. 1C)"}, "[12]": {"settings": "patients with type 2 diabetes, 26 weeks of treatment"}, "[13]": {"settings": "dogs, 0.6 mg/kg s.c. Q3D (FIG. 5)"}, "[14]": {"settings": "72 hours of incubation, all concentrations (1, 3, 10, 20 nM)"}, "[15]": {"settings": "dogs, 2 mg/kg s.c. Q3D for 10 days"}, "[16]": {"settings": "shorter incubations of 4 or 8 hours"}}, "note": "Read-outs that look alike come from different tables or passages of the source."}
{"smiles": "CO[C@@H]1[C@H](OC(=O)/C=C/c2ccc(OCCN(C)C)cc2)CC[C@]2(CO2)[C@H]1[C@@]1(C)O[C@@H]1CC=C(C)C", "note": "[Beloranib, beloranib]", "values": [{"measurement": "reduction of cell proliferation measured at 72 hours", "setting": "[1]; [10]", "value": "approximately 60%"}, {"measurement": "effects on EC proliferation after short exposure", "setting": "[1]; [11]", "value": "occurred rapidly"}, {"measurement": "lowest concentration with effects on EC proliferation at short exposure", "setting": "[1]; [11]", "value": 11, "unit": "× the EC50"}, {"measurement": "adverse events", "setting": "[2]; patients with obesity, PWS, or type 2 diabetes", "value": "adverse events (AEs) of venous thromboembolism occurred"}, {"measurement": "reduction in HbA1c", "setting": "[2]; [12]", "value": 2.0, "unit": "%"}, {"measurement": "weight loss", "setting": "[2]; [12]", "value": 13, "unit": "%"}, {"measurement": "PAI-1 protein level", "setting": "[3]; 10 and 20 nM at the earliest timepoint", "value": "increased PAI-1 levels"}, {"measurement": "PAI-1 protein level", "setting": "[3]; all concentrations at 72 hours", "value": "increased PAI-1 levels"}, {"measurement": "vWF levels", "setting": "[4]", "value": "no effects on vWF levels"}, {"measurement": "tolerability", "setting": "[5]; dogs, 0.6 mg/kg s.c. Q3D", "value": "not well tolerated"}, {"measurement": "D-dimer concentrations", "setting": "[5]; [13]", "value": "increased"}, {"measurement": "antithrombin III", "setting": "[5]; [13]", "value": "decreased"}, {"measurement": "platelet count", "setting": "[5]; [13]", "value": "decreased"}, {"measurement": "thrombin time", "setting": "[5]; [13]", "value": "decreased"}, {"measurement": "hemostasis in toxicology studies", "setting": "[5]; dogs, 0.6 mg/kg s.c. Q3D, within 2 weeks of drug administration", "value": "some animals developed evidence of impaired hemostasis"}, {"measurement": "p21 protein level", "setting": "[6]; [14]", "value": "increased p21"}, {"measurement": "p21 protein level", "setting": "[6]; short 4- or 8-hour incubations, 10 and 20 nM", "value": "increased p21"}, {"measurement": "p53 protein levels", "setting": "[7]", "value": "no effects on p53 protein levels"}]}
{"smiles": "CO[C@@H]1[C@H](OC(=O)N2CC(CCN3CCOCC3)C2)CC[C@]2(CO2)[C@H]1[C@@]1(C)O[C@@H]1CC=C(C)C", "note": "[Compound A]", "values": [{"measurement": "effect on cell proliferation measured at 72 hours", "setting": "[1]; [10]", "value": "no effect on cell proliferation"}, {"measurement": "effect on cell proliferation after short-term exposure", "setting": "[1]; 4 hours or less, concentrations up to 50× the EC50", "value": "no effect on cell proliferation"}, {"measurement": "continuous exposure time needed for robust inhibition of EC proliferation", "setting": "[1]; FIG. 1B", "value": "≥ 48", "unit": "h"}, {"measurement": "% inhibition 6XIC90 4 h exposure", "setting": "[1]; HUVEC proliferation, 6XIC90, 4 h exposure", "value": 5.6, "unit": "%"}, {"measurement": "% inhibition 6XIC90 24 h exposure", "setting": "[1]; HUVEC proliferation, 6XIC90, 24 h exposure", "value": 41, "unit": "%"}, {"measurement": "% inhibition 20XIC90 4 h exposure", "setting": "[1]; HUVEC proliferation, 20XIC90, 4 h exposure", "value": 12.4, "unit": "%"}, {"measurement": "% inhibition 20XIC90 24 h exposure", "setting": "[1]; HUVEC proliferation, 20XIC90, 24 h exposure", "value": 40, "unit": "%"}, {"measurement": "PAI-1 protein level", "setting": "[3]; any of the concentrations or time points", "value": "no effect on PAI-1 protein levels"}, {"measurement": "EC50", "setting": "[8]; 72 h, read-out: concentration that inhibited EC proliferation by 50% (EC50)", "value": 0.24, "unit": "nM"}, {"measurement": "EC50", "setting": "[8]; read-out: HUVEC Proliferation (EC50, nM)", "value": 0.2, "unit": "nM"}, {"measurement": "vWF levels", "setting": "[4]", "value": "no effects on vWF levels"}, {"measurement": "tolerability", "setting": "[5]; dog, in vivo, sc, 2 mg/kg", "value": "well tolerated"}, {"measurement": "body weight", "setting": "[5]; [15]", "value": "Weight loss was observed"}, {"measurement": "food intake", "setting": "[5]; [15]", "value": "unchanged"}, {"measurement": "changes in clinical observations, hematology (platelet count), D-dimer, thrombin time, antithrombin III", "setting": "[5]; dogs, 2 mg/kg s.c. Q3D for 10 days (FIG. 5)", "value": "no adverse changes"}, {"measurement": "survival", "setting": "[5]; dogs, 2 mg/kg s.c. Q3D, scheduled dosing period", "value": "all animals survived"}, {"measurement": "TM protein level", "setting": "[9]; [14]", "value": "reduced TM protein levels"}, {"measurement": "TM protein level", "setting": "[9]; [16]", "value": "no meaningful changes"}, {"measurement": "p21 protein level", "setting": "[6]; [14]", "value": "increased p21"}, {"measurement": "p21 protein level", "setting": "[6]; [16]", "value": "no meaningful changes"}, {"measurement": "p53 protein levels", "setting": "[7]", "value": "no effects on p53 protein levels"}]}
